From PMC10812785, “Structures, Interactions and Activity of the N-Terminal Truncated Variants of Antimicrobial Peptide Thanatin” (Antibiotics, 2024)
Where two headings read alike, the source gives them in different places. Bridge positions count the residues as written; N and C are the ends. Ends that are not written are not given here.

Key:
[1] = tested on: Acenobacter baumannii ATCC BAA-1798; assay type: cell-based, A. baumannii
From the text: (§1) Chemically synthesized PM15, PM15Y and PM15A peptides were obtained from GLBiochem^TM (Shanghai, China). Molecular weight of the peptides was confirmed by mass spectrometry. Bacterial strains were obtained from the American Type Culture Collection (ATCC, Manassas, VA, USA). Mueller–Hinton (MH) broth was purchased from Sigma-Aldrich^TM (Saint Louis, MO, USA) and Millipore-Sigma^TM (Saint Louis, MO, USA). 1-N-phenylnaphthylamine (NPN) and LPS (E. coli O111:B4) were purchased from Sigma Aldrich^TM.
Bacterial growth inhibition of PM15, PM15A and PM15Y peptides was estimated against a panel of bacterial strains, namely, E. coli ATCC25922, S. enterica ATCC 14028, K. pneumoniae ATCC 13883, A. baumannii ATCC BAA-1798, S. pyogenes ATCC 19615 and E. faecalis ATCC 29212, by using the broth dilution assay determining minimum inhibitory concentration (MIC). Typically, overnight bacterial cultures were grown to mid-log phase at 37 °C and then diluted in Mueller–Hinton (MH) broth to OD600 ~ 0.002. […] Bacterial inhibition was determined by absorbance of 96-well plates at OD600 nm by using a Cytation spectrophotometer (Agilent, Santa Clara, CA, USA). The minimum peptide concentration showing complete inhibition of bacterial growth was determined as the MIC value.

LptAm protein of E. coli = target: T1, LptAm protein of E. coli (Escherichia coli, UniProt P0ADV1); test: ITC of peptide/LptAm binding; settings: 50 mM sodium phosphate, 150 mM NaCl, pH 7.0, 25 °C
T1 construct: Expression and purification of LptAm protein (residues 28–159), with a six His-tag (SGRVEHHHHHH) at the C-terminus; made in house; host or cells: E. coli BL21
Protocol: (§2) ITC experiments were conducted by using a MicroCal ITC 200 calorimeter. Samples, LPS and peptides, were prepared in 10 mM sodium phosphate buffer, pH 7.0. LPS (50 µM) was placed in the sample cell, while the syringe contained 1 mM of peptide. In an individual experiment, 2.0 μL of peptide was titrated, with a total of 20 titrations, into the sample cell containing LPS at 37 °C with stirring speed adjusted to 750 rpm. For ITCs of peptides/LptAm, samples were prepared in 50 mM sodium phosphate buffer, 150 mM NaCl, pH 7.0. 25 μM of LptAm was loaded into the sample cell, whereas 250 μM of PM15 and PM15Y was placed in the syringe. ITC titrations were performed with 20 injections of 2 µL of peptide into sample cells at 25 °C with a stirring speed of 750 rpm. ITC data were analyzed by using a single site binding model in MicroCal Origin 5.0 software to obtain the association constant (Ka) and enthalpy change (ΔH). Other binding parameters, namely, dissociation constant (Kd), Gibbs free energy (ΔG) and entropy change (TΔS), were determined indirectly from thermodynamics equations.
Expression and purification of LptAm protein (residues 28–159), with a six His-tag (SGRVEHHHHHH) at the C-terminus, was carried out by using a previously established method. Briefly, plasmid DNA coding for LptAm gene was transformed into E. coli BL21 competent cells in LB agar plates containing 100 µg/mL of ampicillin. Protein production from expressing E. coli was induced by 1 mM isopropyl β-d-1-thiogalactopyranoside (IPTG) at an OD600 value of 0.6–0.8 at 18 °C for 18 h. The bacteria cells were centrifuged at 6000 rpm, 4 °C for 15 min and resuspended in a lysis buffer (100 mM HEPES, 500 mM NaCl, 10 mM imidazole, pH 8). Bacterial cells were lysed by sonication on ice at 25 Amp for 1 h, the lysate was centrifuged at 18,000 rpm, 4 °C for 30 min to remove cellular debris. The cell supernatant was applied through Ni-NTA (Qiagen, Germantown, TN, USA) beads thrice before washing it with increasing concentrations of imidazole. […]

[2] = ITC of peptide/LPS binding; design: species or system E. coli; settings: 10 mM sodium phosphate, pH 7.0, 37 °C
From the text: as §1, §2

E. coli cells = test: Zeta potential of E. coli cells (surface charge neutralization); assay type: cell-based; settings: 10 mM sodium phosphate buffer, pH 7; peptide 2-32 μM; three replicates of 100 runs; Figure 1A
Protocol: All zeta potential measurements were performed on a Zeta Sizer Nano ZS (Malvern Instruments, Worcestershire, UK) equipped with a 633 nm He laser using zeta cells with gold electrodes. Typically, E. coli cells at a mid-log culture in LB media were harvested by centrifugation at 5000 rpm for 10 min and resuspended in 10 mM sodium phosphate buffer, pH 7. Zeta potential value of the bacterial cell suspension was determined for the free cells and with subsequent additions of peptide (2 μM to 32 μM). For each concentration, 100 runs were carried out and three replicates were executed.

bacteria = settings: cited from earlier work; for antibacterial activity, in words: N-terminal deletion fragment of thanatin
From the text: Antimicrobial peptides (AMPs) are found in all life forms and constitute the first line of defense as a part of innate immunity in higher organisms, including humans. As a mode of action, a significant number of cationic AMPs disrupt membrane structures including the LPS–outer membrane of Gram-negative bacteria. Thanatin, a 21-residue antimicrobial peptide, was originally identified from the hemolymph of the spined soldier bug, or Podisus maculiventris. […] Further, to understand residue length-dependent antibacterial activity, here, we investigated a 15-residue N-terminal peptide fragment, or PM15 (PIIYCNRRTGKCQRM), of thanatin. We also examined two analog peptides, PM15Y and PM15A, to replace residue Pro. […] In this study, we have examined 15-residue thanatin-derived peptide, or PM15, and two analogs, PM15Y and PM15A. PM15 and analog peptides are able to exert antibacterial activity against Gram-negative and Gram ...

[3] = tested on: LPS-outer membrane; LptA and LptD; settings: cited from earlier work
From the text: (§3) Antimicrobial peptides (AMPs) are found in all life forms and constitute the first line of defense as a part of innate immunity in higher organisms, including humans. As a mode of action, a significant number of cationic AMPs disrupt membrane structures including the LPS–outer membrane of Gram-negative bacteria. Thanatin, a 21-residue antimicrobial peptide, was originally identified from the hemolymph of the spined soldier bug, or Podisus maculiventris. Recent studies have discovered and characterized thanatin orthologous AMPs from other speci ...

[4] = tested on: bacterial load from model animals; settings: ref [29],[30],[31]; cited from earlier work
From the text: as §3

[5] = target: T2, LptAm, a monomeric functional (truncated) variant of LptA (E. coli, UniProt P0ADV1 28-159); test: ITC; 250 uM peptide in the syringe titrated into 25 uM LptAm in the cell; 50 mM sodium phosphate, 150 mM NaCl, pH 7.0, 25 °C; single site binding model; apparent Kd; settings: both partners purified
T2 construct: LptA, periplasmic component of the LPS transport (Lpt) complex, E. coli, residues 28-159; no removal of the His tag is described; source: E. coli BL21, purified (Ni-NTA, size-exclusion chromatography)
T2 sequence (looked up): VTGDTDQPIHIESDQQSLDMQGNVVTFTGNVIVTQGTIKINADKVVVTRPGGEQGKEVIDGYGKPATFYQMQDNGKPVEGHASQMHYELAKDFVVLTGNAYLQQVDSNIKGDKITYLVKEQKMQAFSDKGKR

[6] = 1 mM peptide into 50 μM E. coli LPS (O111:B4), single site binding model
[7] = LPS, determined indirectly from thermodynamics equations

Molecule: CC[C@H](C)[C@H](NC(=O)[C@@H]1CCCN1)C(=O)N[C@H](C(=O)N[C@@H](Cc1ccc(O)cc1)C(=O)N[C@H]1CSSC[C@@H](C(=O)N[C@@H](CCC(N)=O)C(=O)N[C@@H](CCCNC(=N)N)C(=O)N[C@@H](CCSC)C(=O)O)NC(=O)[C@H](CCCCN)NC(=O)CNC(=O)[C@H]([C@@H](C)O)NC(=O)[C@H](CCCNC(=N)N)NC(=O)[C@H](CCCNC(=N)N)NC(=O)[C@H](CC(N)=O)NC1=O)[C@@H](C)CC [PM15]
- MIC [1]: >16 (>16) µM
- ΔH (LptAm protein of E. coli; 250 μM peptide into 25 μM LptAm, single site binding model): -2.93 kcal/mol
- LptAm binding, in words (LptAm protein of E. coli): bind to LptAm with high affinity
- TΔS (LptAm protein of E. coli; LptAm, determined indirectly from thermodynamics equations): 6.23 kcal/mol
- Kd [2, 6]: 570 nM
- ΔH [2, 6]: -7.33 kcal/mol
- TΔS [2, 7]: 1.54 kcal/mol
- ΔG [2, 7]: -8.87 kcal/mol
- change in zeta potential of E. coli cells, in words (E. coli cells): increase in zeta potential in a dose-dependent manner

Molecule: IIYCNRRTGKCQRM [14-residue (IIYCNRRTGKCQRM) fragment, 14-residue (…) fragment of thanatin]
- antibacterial activity, in words (bacteria; ref [23],[36]): largely inactive
- antibacterial activity, in words (bacteria; ref [23],[36], listed as 14-residue thanatin): inactive peptide

Molecule: VPIIYCNRRTGKCQRM [16-residue fragment, 16-residue fragment (…) of thanatin]
- antibacterial activity, in words (bacteria; ref [23],[26],[31],[36]): potent antibacterial activity
- antibacterial activity, in words (bacteria; ref [23],[31],[36]): demonstrated antibacterial activity

Molecule: thanatin: 21-residue antimicrobial peptide from the hemolymph of the spined soldier bug, Podisus maculiventris
- killing of Gram-negative bacteria, in words (bacteria; Enterobacteriaceae, including drug-resistant strains, ref [26],[28],[30],[31]): extremely potent in selectively killing Gram-negative bacteria
- antimicrobial activity, in words (bacteria; Gram-negative and Gram-positive bacteria and several strains of fungi, ref [23],[26],[27],[28],[29],[30]): broad spectrum of antimicrobial activity
- inhibition of outer-membrane biogenesis, in words ([3]; LptA and LptD, LPS transport, ref [33],[34],[35]): inhibits outer-membrane biogenesis by disrupting protein complexes (LptA and LptD)
- interaction with LPS-outer membrane, in words ([3]; ref [27],[28],[32]): interacted with the LPS–outer membrane, facilitating the permeabilizing of the OM barrier
- clearing bacterial load, in words [4]: promising activity profile

B1: PM15Y, P1 to Y substituted variant of PM15 (peptide)
chain: YIIYCNRRTGKCQRM
modifications: disulfide 5-12
- dH [5]: -11.8 kcal/mol

B2: PM15, 15-residue N-terminal truncated analog of thanatin (peptide)
peptide: PIIYCNRRTGKCQRM
notes: thanatin, Podisus maculiventris (spined soldier bug), the C-terminal 15 residues of the 21-residue peptide (P7-M21 of thanatin); also called 15-residue thanatin peptide; source: synthetic peptide, bought: GLBiochem (Shanghai, China)
- Kd [5]: 600 nM
- dH [5]: -2.93 kcal/mol
